# Data taken from patent EP0233461B2, “4,5,6-Substituted-2-pyrimidinamines” (AMERICAN CYANAMID COMPANY, priority 1986, dated 1987).
# Structures can show the parent of a compound that is named as a salt.
# Test system: human basophils
# Assay: Inhibition of histamine release from immunologically stimulated human basophils
# Type: cell-based
# Details: Homo sapiens, concentration causing 50% inhibition of histamine release, by linear regression; active if IC50 ≦ 48 µM
# Procedure, shortened: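 Leukocytes from sedimented human blood, washed in Tris-A and resuspended in Tris-ACM, were challenged with anti-IgE or antigen, with or without compound, for 60 min at 37 °C. Released histamine was measured fluorometrically after OPT derivatization and expressed as percent of total (perchloric acid lysate), corrected for spontaneous release.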
row,Compound,IC50 [nM]
1,"COc1ccc(Nc2nccc(-c3cccnc3)n2)cc1 [N-(4-Methoxyphenyl)-4-(3-pyridinyl)-2-pyrimidinamine, sulfate]",< 48000
2,"c1ccc(Nc2nccc(-c3cccnc3)n2)cc1 [N-Phenyl-4-(3-pyridinyl)-2-pyrimidinamine, sulfate]",3000

# Same assay, conditions: Homo sapiens, concentration causing 50% inhibition of histamine release, by linear regression; active if IC50 ≦ 48 µM; read-out: IC50
row,Compound,IC50 [nM]
1,c1ccc(-c2ccnc(NC3CCCC3)n2)nc1 [N-Cyclopentyl-4-(2-pyridinyl)-2-pyrimidinamine],2200
2,c1ccc(Nc2nccc(-c3cccs3)n2)cc1 [N-Phenyl-4-(2-thienyl)-2-pyrimidinamine],31700
3,c1ccc(Nc2nccc(-c3ccnc4ccccc34)n2)cc1 [N-Phenyl-4-(4-quinolinyl)-2-pyrimi-dinamine],3000
4,c1ccc(-c2ccnc(Nc3cccc(-n4ccnc4)c3)n2)nc1 [N-[3-(1H-Imidazol-1-yl)phenyl]-4-(2-pyridinyl)-2-pyrimidinamine],100
5,c1cc(Nc2nccc(-c3cccs3)n2)cc(-n2ccnc2)c1 [N-[3-(1H-Imidazol-1-yl)phenyl]-4-(2-thienyl)-2-pyrimidinamine],200
6,c1cc(Nc2nccc(-c3ccncc3)n2)cc(-n2ccnc2)c1 [N-[3-(1H-Imidazol-1-yl)phenyl]-4-(4-pyridinyl)-2-pyrimidinamine],400
7,CCN(CC)CCOc1cccc(Nc2nccc(-c3ccco3)n2)c1 [N-[3-[2-(Diethylamino)ethoxy]phen-yl]-4-(2-furanyl)-2-pyrimidinamine],1300
8,CCN(CC)CCOc1cccc(Nc2nccc(-c3cccs3)n2)c1 [N-[3-[2-(Diethylamino)ethoxy]phen-yl]-4-(2-thienyl)-2-pyrimidinamine],600
9,CCN(CC)CCOc1cccc(Nc2nccc(-c3ccncc3)n2)c1 [N-[3-[2-(Diethylamino)ethoxy]phenyl]-4-(4-pyridinyl)-2-pyrimidinamine],700
10,CC(=O)Nc1cccc(Nc2nccc(-c3ccccn3)n2)c1 [N-[3-[[4-(2-Pyridinyl)-2-pyrimidinyl]amino]-phenyl]acetamide],300

# Other lines, results leading:
row,IC50 [nM],Compound
1,2300,Brc1ccc(Nc2nccc(-c3cccnc3)n2)cc1 [N-(4-Bromophenyl)-4-(3-pyridinyl)-2-pyrimidinamine]
2,< 48000,CCc1ccc(Nc2nccc(-c3cccn3C)n2)cc1 [N-(4-Ethylphenyl)-4-(1-methyl-1H-pyrrol-2-yl)-2-pyrimidinamine]
3,2100,CCc1ccc(Nc2nccc(-c3ccccn3)n2)cc1 [N-(4-Ethylphenyl)-4-(2-pyridinyl)-2-pyrimidinamine]
4,< 48000,CCc1ccc(Nc2nccc(-c3cccnc3)n2)cc1 [N-(4-Ethylphenyl)-4-(3-pyridinyl)-2-pyrimidinamine]
5,17700,"CCc1ccc(Nc2nccc(-c3cc[n+]([O-])cc3)n2)cc1 [N-(4-Ethylphenyl)-4-(4-pyridinyl)-2-pyrimidinamine, pyridine-1-oxide]"
6,7700,CCc1ccc(Nc2nccc(-c3ccncc3)n2)cc1 [N-(4-Ethylphenyl)-4-(4-pyridinyl)-2-pyrimidinamine]
7,4000,CCc1ccc(Nc2nccc(-c3ccnc4ccccc34)n2)cc1 [N-(4-Ethylphenyl)-4-(4-quinolinyl)-2-pyrimidinamine]
8,36300,CCc1ccc(Nc2nccc(-c3ccc(C)s3)n2)cc1 [N-(4-Ethylphenyl)-4-(5-methyl-2-thienyl)-2-pyrimidinamine]
9,13400,CCc1ccc(Nc2nccc(-c3ccc(C)nc3)n2)cc1 [N-(4-Ethylphenyl)-4-(6-methyl-3-pyridinyl)-2-pyrimidinamine]
10,2800,CCc1ccc(Nc2nccc(-c3cnccn3)n2)cc1 [N-(4-Ethylphenyl)-4-pyrazinyl-2-pyrimidinamine]
11,< 48000,CCc1ccc(Nc2ncc(C)c(-c3ccncc3)n2)cc1 [N-(4-Ethylphenyl)-5-methyl-4-(4-pyridinyl)-2-pyrimidinamine]
12,19100,CCc1ccc(Nc2nc(C)cc(-c3ccc(C)nc3)n2)cc1 [N-(4-Ethylphenyl)-6-methyl-4-(6-methyl-3-pyridinyl)-2-pyrimidinamine]
13,13300,Fc1ccc(Nc2nccc(-c3ccco3)n2)cc1 [N-(4-Fluorophenyl)-4-(2-furanyl)-2-pyrimidinamine]
14,< 48000,Fc1ccc(Nc2nccc(-c3cccnc3)n2)cc1 [N-(4-Fluorophenyl)-4-(3-pyridinyl)-2-pyrimidinamine]
15,1900,Fc1ccc(Nc2nccc(-c3ccncc3)n2)cc1 [N-(4-Fluorophenyl)-4-(4-pyridinyl)-2-pyrimidinamine]
16,8300,COc1ccc(Nc2nccc(-c3ccccn3)n2)cc1 [N-(4-Methoxyphenyl)-4-(2-pyridinyl)-2-pyrimidinamine]
17,3900,COc1ccc(Nc2nccc(-c3cccs3)n2)cc1 [N-(4-Methoxyphenyl)-4-(2-thienyl)-2-pyrimidinamine]

row,IC50 [nM],Compound
1,15600,COc1ccc(Nc2nccc(-c3ccsc3)n2)cc1 [N-(4-Methoxyphenyl)-4-(3-thienyl)-2-pyrimidinamine]
2,1000,COc1ccc(Nc2nccc(-c3ccncc3)n2)cc1 [N-(4-Methoxyphenyl)-4-(4-pyridinyl)-2-pyrimidinamine]
3,4600,CNC(=O)c1ccc(Nc2nccc(-c3cccnc3)n2)cc1 [N-Methyl-4-[[4-(3-pyridinyl)-2-pyrimidinyl]amino]benzamide]
4,1400,"CNc1ccc(Nc2nccc(-c3ccccn3)n2)cc1 [N-Methyl-N'-[4-(2-pyridinyl)-2-pyrimidinyl]-1,4-benzenediamine]"
5,2100,"CNc1ccc(Nc2nccc(-c3cccnc3)n2)cc1 [N-Methyl-N'-[4-(3-pyridinyl)-2-pyrimidinyl]-1,4-benzenediamine]"
6,600,CC(=O)N(C)c1ccc(Nc2nccc(-c3ccccn3)n2)cc1 [N-Methyl-N-[4-[[4-(2-pyridinyl)-2-pyrimidinyl]amino]phenyl]acetamide]
7,1100,CC(=O)N(C)c1ccc(Nc2nccc(-c3cccnc3)n2)cc1 [N-Methyl-N-[4-[[4-(3-pyridinyl)-2-pyrimidinyl]amino]phenyl]acetamide]
8,100,CC(=O)N(C)c1ccc(Nc2nccc(-c3ccncc3)n2)cc1 [N-Methyl-N-[4-[[4-(4-pyridinyl)-2-pyrimidinyl]amino]phenyl]acetamide]
9,4600,CC(NC=O)c1cccc(Nc2nccc(-c3cccnc3)n2)c1 (stereo not shown) [N-[1-[3-[[4-(3-Pyridinyl)-2-pyrimidinyl]amino]phenyl]ethyl]formamide]
10,400,CC(NC=O)c1ccc(Nc2nccc(-c3cccnc3)n2)cc1 (stereo not shown) [N-[1-[4-[[4-(3-Pyridinyl)-2-pyrimidinyl]amino]phenyl]ethyl]formamide]
11,800,CCN(CC)CCNC(=O)c1ccc(Nc2nccc(-c3cccnc3)n2)cc1 [N-[2-(Diethylamino)ethyl]-4-[[4-(3-pyridinyl)-2-pyrimidinyl]amino]benzamide]
12,1200,CC(=O)Nc1ccc(Nc2nccc(-c3ccncc3)n2)cc1C [N-[2-Methyl-4-[[4-(4-pyridinyl)-2-pyrimidinyl]amino]phenyl]acetamide]
13,5100,"CC(N)c1cccc(Nc2nccc(-c3cccnc3)n2)c1 (stereo not shown) [N-[3-(1-Aminoethyl)phenyl)-4-(3-pyridinyl)-2-pyrimidinanine, trihydrochloride]"
14,100,c1cncc(-c2ccnc(Nc3cccc(-n4ccnc4)c3)n2)c1 [N-[3-(1H-Imidazol-1-yl)phenyl]-4-(3-pyridinyl)-2-pyrimidinamine]
15,2800,CCN(CC)CCOc1cccc(Nc2nccc(-c3cccnc3)n2)c1 [N-[3-[2-(Diethylamino)ethoxy]phenyl]-4-(3-pyridinyl)-2-pyrimidinamine]
16,5000,CC(=O)Nc1cccc(Nc2nccc(-c3cccnc3)n2)c1 [N-[3-[[4-(3-Pyridinyl)-2-pyrimidinyl]amino]-phenyl]acetamide]

# Same assay, conditions: concentration causing 50% inhibition of histamine release, by linear regression; active if IC50 ≦ 48 µM; dihydrochloride; read-out: IC50
row,Compound,IC50 [nM]
1,"c1ccc(Nc2nccc(-c3ccncc3)n2)cc1 [N-Phenyl-4-(4-pyridinyl)-2-pyrimidinamine, dihydrochloride]",3000

# Same assay, conditions: concentration causing 50% inhibition of histamine release, by linear regression; active if IC50 ≦ 48 µM; dinitrate
row,Compound,IC50 [nM]
1,"c1ccc(Nc2nccc(-c3ccncc3)n2)cc1 [N-Phenyl-4-(4-pyridinyl)-2-pyrimidinamine, dinitrate]",1200

# Same assay, conditions: concentration causing 50% inhibition of histamine release, by linear regression; active if IC50 ≦ 48 µM; phosphate; read-out: IC50
row,Compound,IC50 [nM]
1,"COc1ccc(Nc2nccc(-c3cccnc3)n2)cc1 [N-(4-Methoxyphenyl)-4-(3-pyridinyl)-2-pyrimidinamine, phosphate]",3200
2,"c1ccc(Nc2nccc(-c3cccnc3)n2)cc1 [N-Phenyl-4-(3-pyridinyl)-2-pyrimidinamine, phosphate]",2700
3,"c1ccc(Nc2nccc(-c3ccncc3)n2)cc1 [N-Phenyl-4-(4-pyridinyl)-2-pyrimidinamine, phosphate]",3300

# Same assay, conditions: concentration causing 50% inhibition of histamine release, by linear regression; active if IC50 ≦ 48 µM; read-out: IC50
row,Compound,IC50 [nM]
1,COc1ccc(Nc2nccc(-c3cccnc3)n2)cc1 [N-(4-Methoxyphenyl)-4-(3-pyridinyl)-2-pyrimidinamine],1400
2,c1ccc(Nc2nccc(-c3cccnc3)n2)cc1 [N-Phenyl-4-(3-pyridinyl)-2-pyrimidinamine],900
3,"c1ccc(Nc2nccc(-c3ccncc3)n2)cc1 [N-Phenyl-4-(4-pyridinyl)-2-pyrimidinamine, (Z)-2-butenedioat] [N-Phenyl-4-(4-pyridinyl)-2-pyrimidinamine, (Z)-2-butenedioate (1:1)]",1000
4,"c1ccc(Nc2nccc(-c3ccncc3)n2)cc1 [N-Phenyl-4-(4-pyridinyl)-2-pyrimidinamine, compound with 2-h] [N-Phenyl-4-(4-pyridinyl)-2-pyrimidinamine, compound with 2-hydroxy-1,2,3-propanetricarboxylate (2:1)]",3500
5,c1ccc(Nc2nccc(-c3ccncc3)n2)cc1 [N-Phenyl-4-(4-pyridinyl)-2-pyrimidinamine],900
